Assay results reported in patent US5627271A, “Glycolipids, their preparation and use” (Genzyme Limited, priority 1992, dated 1997).
Values joined by “and” are separate entries in the source; they are usually repeats but may differ in a detail not shown here. Equal entries are not always repeated.

What was measured:
[1] = tested on: galactosyltransferase; experiment: Test as substrate for galactosyltransferase; assay type: biochemical, bovine; conditions: with and without the detergent Triton CF-54
Method: Compound (28): The acceptor (27) (16.5 mg, 31.2 μmol) was sonicated carefully for 15 min in 39 μl of 40 mM MnCl2, 93 μl of 50 mM NaN3, 102 μl and 330 μl of sodium cacodylate buffer pH 7.4 100 mM and 50 mM respectively. Then 35 μl of 2% BSA, 5.5 μl (5.5 U) of 1 U/μl calf intestinal alkaline phosphatase, 143 μl (1.92 U) of 6.7 U/500 μl UDP-Glc 4--epimerase, 29 μl (487 mU) of 8.4 U/500 μl galactosyl-transferase and 21.9 mg (37.9 μmol, 1.2 eq.) of UDP-Glc were added. The final concentrations were as follows: [Acceptor]=40 mM, [UDP-Glc]=49 mM, [MnCl2 ]=2 mM, [NAN3 ]=6 mM, [Sodium cacodylate]=50 mM.
The GlcNAc ceramide (40) has been tested as a substrate for the galactosyltransferase with and without the addition of the detergent Triton CF-54. No conversion was obtained.

[2] = target: T1, α2-3 sialyltransferase (Sus scrofa, UniProt Q02745); experiment: Incorporation of radio-labelled CMP-NANA into glycolipid acceptors by α2-3 sialyltransferase; assay type: biochemical, porcine
T1 construct: from porcine liver; from tissue; host or cells: porcine liver
T1 sequence (Q02745 1-343): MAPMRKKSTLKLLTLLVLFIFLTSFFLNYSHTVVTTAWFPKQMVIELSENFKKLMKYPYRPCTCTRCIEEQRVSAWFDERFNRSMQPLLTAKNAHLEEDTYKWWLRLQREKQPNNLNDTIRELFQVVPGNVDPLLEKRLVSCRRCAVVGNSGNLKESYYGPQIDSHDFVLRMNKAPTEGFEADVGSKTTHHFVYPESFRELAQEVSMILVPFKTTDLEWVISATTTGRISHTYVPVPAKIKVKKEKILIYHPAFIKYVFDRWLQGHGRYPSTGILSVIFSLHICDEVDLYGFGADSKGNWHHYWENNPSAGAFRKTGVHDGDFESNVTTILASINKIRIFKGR
Method: (§1) Various glycolipids have been incubated with α2-3 and α2-6 sialyltransferases (from porcine and rat liver) in the presence of radio-labelled CMP-NANA. […] Other glycolipids could accept NANA, but in relatively low yields.
However, this transferase should be able to use glycolipid (54) as an acceptor.

[3] = target: T2, α2-6 sialyltransferase (Rattus norvegicus, UniProt P13721); experiment: Incorporation of radio-labelled CMP-NANA into glycolipid acceptors by α2-6 sialyltransferase; assay type: biochemical
T2 construct: (from porcine and rat liver); from tissue; host or cells: rat liver
T2 sequence (P13721 1-403): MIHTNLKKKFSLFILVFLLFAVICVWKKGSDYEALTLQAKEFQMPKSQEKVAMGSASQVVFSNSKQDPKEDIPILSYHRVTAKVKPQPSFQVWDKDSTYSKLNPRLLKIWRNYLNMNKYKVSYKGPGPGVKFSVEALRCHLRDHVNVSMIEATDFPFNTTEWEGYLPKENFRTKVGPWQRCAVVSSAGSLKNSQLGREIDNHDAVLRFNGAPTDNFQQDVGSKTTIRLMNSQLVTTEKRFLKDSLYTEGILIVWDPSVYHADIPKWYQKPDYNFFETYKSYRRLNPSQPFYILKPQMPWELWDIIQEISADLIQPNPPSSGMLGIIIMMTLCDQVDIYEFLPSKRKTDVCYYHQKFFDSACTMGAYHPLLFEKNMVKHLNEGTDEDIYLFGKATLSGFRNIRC
Method: as §1

[4] = target: T3, α1-3 fucosyl transferase VI (Homo sapiens, UniProt P51993); experiment: Test as substrate for α1-3 fucosyl transferase VI with radio-labelled GDP-[14C]fucose; assay type: biochemical; conditions: for Competition for incorporation of fucose into lipid (acceptor quality): 0.2 mM (28) with 0 to 2 mM N-acetyllactosamine; for Percentage of fucose transferred: 0.5 mU fucosyl transferase, 1 hour
T3 sequence (P51993 1-359): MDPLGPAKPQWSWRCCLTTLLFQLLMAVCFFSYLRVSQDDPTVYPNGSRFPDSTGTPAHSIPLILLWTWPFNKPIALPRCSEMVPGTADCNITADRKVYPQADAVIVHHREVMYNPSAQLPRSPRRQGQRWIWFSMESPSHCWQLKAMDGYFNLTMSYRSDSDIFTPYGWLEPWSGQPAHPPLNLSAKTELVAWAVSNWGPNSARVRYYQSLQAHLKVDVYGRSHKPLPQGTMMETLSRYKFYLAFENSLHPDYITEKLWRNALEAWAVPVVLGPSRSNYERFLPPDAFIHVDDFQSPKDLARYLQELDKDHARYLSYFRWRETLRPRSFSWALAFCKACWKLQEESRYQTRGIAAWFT
Method: The acceptor (28) was tested as a substrate for α1-3 fucosyl transferase VI, by incubation with the enzyme and radio-labelled GDP-[^14 C]fucose. The reaction conditions were: 45 mM Mes pH 6.5; 27 μM GDP-Fuc; 0.1% BSA; 0.1 mM NaCl; 5 mM MnCl2; 5 mM MgCl2; incubation at 37° C.). The reaction mixture was passed through a Sep-Pak C18 cartridge which was washed with 0.2M NaCl to ensure separation of all hydrophilic material. The lipid fraction was then eluted with MeOH. The incorporation of radioactivity into lipids was measured by scintillation counting.
In a first experiment, the transfer was monitored with time, using 0.2 mM (28) and 0.1 mU fucosyltransferase/100 μl incubation, and compared to a control incubation containing no acceptor. […] In a further experiment, but using 0.5 mU fucosyl transferase over 1 hour, the transfer of fucose was measured at 0.2, 1, 5 and 24 mM concentrations of (28). The percentage of fucose transferred was respectively about 50%, 60%, 65% and 70%.
Competition experiments were also carried out, using 0.2 mM acceptor (28), in the presence of various concentrations (0 to 2 mM) of N-acetyllactosamine which is a known substrate for the enzyme. The samples were analysed as before, for incorporation of fucose into lipid.

[5] = acceptor conc. 12 mM, bracketed numbers are background

CCCCCCCCCCCCC/C=C/[C@@H](O)[C@H](CO[C@@H]1O[C@H](CO)[C@@H](O)[C@H](O)[C@H]1NC(C)=O)N=[N+]=[N-] [(27)]
Conversion (galactosylation) by galactosyltransferase [1]: galactosylated

CCCCCCCCCCCCC/C=C/[C@@H](O)[C@@H](N)CO[C@@H]1O[C@H](CO)[C@@H](O[C@@H]2O[C@H](CO)[C@H](O)[C@H](O)[C@H]2O)[C@H](O)[C@H]1O [(1)]
α2-3ST yield (%) of incorporation of radio-labelled CMP-NANA ([2]; acceptor conc. 12 mM): 1.5%
α2-3ST yield (%) of incorporation of radio-labelled CMP-NANA ([2]; acceptor conc. 100 mM): 2.4% and 2.5%

CCCCCCCCCCCCC/C=C/[C@@H](O)[C@H](CO[C@@H]1O[C@H](CO)[C@@H](O[C@@H]2O[C@H](CO)[C@H](O)[C@H](O)[C@H]2O)[C@H](O)[C@H]1O)N=[N+]=[N-] [(20)]
α2-6 ST yield (%) of incorporation of radio-labelled CMP-NANA [3, 5]: 2.9% and 2.8%
α2-3ST yield (%) of incorporation of radio-labelled CMP-NANA ([2]; acceptor conc. 100 mM): 2.5%

CCCCCCCCCCCCC/C=C/[C@@H](O)[C@H](CO[C@@H]1O[C@H](CO)[C@@H](O[C@@H]2O[C@H](CO)[C@H](O)[C@H](O)[C@H]2O)[C@H](O)[C@H]1O)NC(=O)CCCCCCCCCCCCCCCCC [lactosyl-ceramide, Lactosylceramide, reference compound]
α2-6 ST yield (%) of incorporation of radio-labelled CMP-NANA ([3]; acceptor conc. 43 mM): 2.7%
Transfer by α2-3 sialyltransferase / acceptor substrate (in words) ([2]; α2-3 sialyltransferase from porcine liver): not an acceptor substrate

CCCCCCCCCCCCC/C=C/[C@@H](O)[C@H](CO[C@@H]1O[C@H](CO)[C@@H](O[C@@H]2O[C@H](CO)[C@H](O)[C@H](O)[C@H]2O)[C@H](O)[C@H]1NC(C)=O)N=[N+]=[N-] [(28)]
α2-6 ST yield (%) of incorporation of radio-labelled CMP-NANA ([3]; acceptor conc. 6 mM, bracketed numbers are background): 22.2%
α2-6 ST yield (%) of incorporation of radio-labelled CMP-NANA [3, 5]: 23.2%
α2-6 ST yield (%) of incorporation of radio-labelled CMP-NANA ([3]; acceptor conc. 50 mM, bracketed numbers are background): 47.0%
α2-6 ST yield (%) of incorporation of radio-labelled CMP-NANA ([3]; acceptor conc. 100 mM, bracketed numbers are background): 59.8%
α2-3ST yield (%) of incorporation of radio-labelled CMP-NANA ([2]; acceptor conc. 6 mM): 1.1%
α2-3ST yield (%) of incorporation of radio-labelled CMP-NANA ([2]; acceptor conc. 100 mM): 1.5% and 1.2%
Competition for incorporation of fucose into lipid (acceptor quality) [4]: similarly good acceptors
Incorporation of label into lipid monitored with time ([4]; 0.2 mM acceptor, 0.1 mU fucosyltransferase/100 μl, vs control without acceptor): incorporation of label into lipid above background
Percentage of fucose transferred ([4]; 0.2 mM acceptor): about 50%
Percentage of fucose transferred ([4]; 1 mM acceptor): ~60%
Percentage of fucose transferred ([4]; 5 mM acceptor): ~65%
Percentage of fucose transferred ([4]; 24 mM acceptor): ~70%

CCCCCCCCCCCCC/C=C/[C@@H](O)[C@H](CO[C@@H]1O[C@H](CO)[C@@H](O)[C@H](O)[C@H]1NC(C)=O)NC(=O)CCCCCCCCCCCCCCCCCCCCCCC [(40), GlcNAc ceramide]
Conversion (galactosylation) by galactosyltransferase [1]: No conversion

CC(=O)N[C@H]1C(O)O[C@H](CO)[C@@H](O[C@@H]2O[C@H](CO)[C@H](O)[C@H](O)[C@H]2O)[C@@H]1O (stereo partly drawn) [N-acetyllactosamine, reference compound]
Competition for incorporation of fucose into lipid (acceptor quality) [4]: similarly good acceptors
